Measurements as given in patent US12485107B2, “Methods for the prevention or treatment of cytokine storm” (Beth Israel Deaconess Medical Center, Inc., priority 2019, dated 2025).
“Also recorded” adds a separate entry of the source.

Tests used:
[1] = tested on: ID8 murine ovarian tumor cells; test: Annexin V/propidium iodide flow cytometry of chemotherapy-treated ID8 cells; assay type: cell-based; settings: annexin V/PI; cisplatin 30 μM 48 hours, carboplatin 100 μM 72 hours, paclitaxel 1 μM 48 hours
Procedure: Chemotherapy-generated murine (ID8) and human (OVCAR5) ovarian tumor cell debris were prepared by re-feeding 70% confluent T150 flasks with complete medium plus 1 μM paclitaxel (Cayman Chemical, Ann Arbor, MI) or 100 μM carboplatin (Sigma Aldrich, Natick, MA) and incubating for 48 or 72 hours, respectively, at 37° C. Cisplatin-generated ID8 debris was prepared by re-feeding 70% confluent T150 flasks with complete medium plus 30 μM cisplatin (Sigma Aldrich, Natick, MA) and incubating for 48 hours at 37° C. The resulting floating population (e.g., dead cells or “debris”) was collected, counted via hemocytometer, and pelleted. The dead cells were resuspended with phosphate-buffered saline (PBS), pelleted, and resuspended again at the desired concentration in PBS.
Murine (ID8) or human (OVCAR5) ovarian tumor cells were treated with vehicle or a chemotherapeutic agent (e.g., cisplatin, carboplatin, or paclitaxel) as described. B/CMBA.Ov murine ovarian epithelial cells were treated with vehicle or PTUPB (1 or 5 μM) for 24 hours. The floating population (e.g., dead cells or “debris”) was collected, and the remaining adhered cells were trypsinized and combined with the dead cells. RAW264.7 murine macrophages were treated with vehicle or PTUPB (5 μM) for 24 hours. The floating population was collected and the remaining adhered cells were detached using a cell scraper (Corning Inc., Corning, NY) and combined with the dead cells. Cells were counted via hemocytometer, pelleted, and resuspended in PBS at 1×10^6 cells/mL. Next, 2×10^5 cells were stained with annexin V and propidium iodide (PI) according to FITC Annexin V/Dead Cell Apoptosis Kit protocol (Life Technologies, Carlsbad, CA). Staining was assessed using the BD LSR Fortessa (BD Biosciences, San Jose, CA) at the Dana-Farber Cancer Institute Jimmy Fund Flow Cytometry Core, and analyzed using FlowJo software (Tree Star Inc., Ashland, OR). Experiments were performed three times with similar results.

[2] = tested on: RAW264.7 murine macrophages; assay type: cell-based; settings: 5 μM, 2 hours pre-treatment

Compound | cell death in ID8 ovarian cells [1] | cytokine storm released by macrophages stimulated with aflatoxin B1-generated Hepa 1-6 debris [2]
N.N.[Cl][Pt][Cl] [Cisplatin] | 67% | 
N.N.O=C([O-])C1(C(=O)[O-])CCC1.[Pt+2] [carboplatin] | 78% | 
COc1ccc(-n2nc(CCCNC(=O)Nc3ccc(C(F)(F)F)cc3)cc2-c2ccccc2)cc1 [Ome-21i, 1-(3-(1-(4-methoxyphenyl)-5-phenyl-1H-pyrazol-3-yl)propyl)-3-(4-(trifluoromethyl)phenyl)urea] |  | shows potency in down-regulating; also recorded: inhibited
CC(=O)O[C@H]1C(=O)[C@@]2(C)[C@H]([C@H](OC(=O)c3ccccc3)[C@]3(O)C[C@H](OC(=O)[C@H](O)[C@@H](NC(=O)c4ccccc4)c4ccccc4)C(C)=C1C3(C)C)[C@]1(OC(C)=O)CO[C@@H]1C[C@@H]2O [paclitaxel] | 56% | 
